Results from patent publication EP0781283B1, “TRIAZOLOPYRIDAZINES PROCESS AND INTERMEDIATES FOR THEIR PREPARATION AND THEIR USE AS MEDICAMENTS” (Takeda Chemical Industries, Ltd., priority 1994, dated 1996).

What was measured:
Guinea Pig Eosinophils = assay: Chemotaxis inhibition assay (LTB4-induced chemotaxis of guinea pig eosinophils); assay type: cell-based; conditions: test drug final concentration 10^-5 M, LTB4 10^-8 M, 2 hours; for inhibition at 10 µM: Cavia porcellus, Eosinophil, read-out: Chemotaxis Inhibition Rate (%)
Description: Male Hartley guinea pigs (body weights approx. 300 g) were intraperitoneally treated with 2 ml of horse serum (Whittaker Bioproducts) once a week for 8 consecutive weeks. Forty-eight (48) hours after the last treatment, 75 ml of physiological saline was infused into the peritoneal cavity and the lavage was collected and centrifuged at 400 G (1500 rpm) for 5 minutes. The pellet was suspended in 5 ml of Percoll discontinuous density, gradients (specific gravity d=1.07), layered on top of the Percoll suspensions (specific gravity d=1.112:5 ml, d=1.095:10 ml, d=1.090:10 ml, d=1.085:7 ml) and centrifuged (18°C) at 1000 G (2200 rpm) for 30 minutes. The cell layer formed in the boundary zone between the d=1.112 and d=1.095 layers was collected. The collected cell sediment was subjected to hypotonic treatment (suspended in water for 30 seconds) to remove the contaminant erythrocytes.
The sediment was washed three times with Hanks solution containing 10 mM Hepes (Dojin Kagaku) (Hanks-Hepes) and suspended in Hanks-Hepes containing 2% (w/v) human serum albumin (Wako Pure Chemical) (Hanks-Hepes-HSA) at a concentration of 5.56 x 10^6 celles/ml. The eosinophil purity was 92-96% and the viability of eosinophils was not less than 98%.
To a 24-well petri dish, which serves as a lower chamber, 600 µl of LTB4 (final concentration 10^-8 M, Cascade Biochemical Ltd.) in suspension in Hanks-Hepes-HSA solution, was transferred, followed by incubation at 37°C for 30 minutes in carbon dioxide incubator. Separately, 200 µl (5 × 10^6 cells/ml) of eosinophil suspension, previously incubated at 37°C for 15 minutes in a constant-temperature chamber, was added to Chemotaxicell (polycarbonate membrane, pore size 3 µm, thickness 10 µm), which serves as an upper chamber, after the upper chamber was attached to the 24-well petri dish. After 2 hours of reaction in the carbon dioxide incubator, the Chemotaxicell was removed; 60 µl of a 2% (w/v) solution of EDTA in physiological saline was added to the liquid in the lower chamber. After the mixture was ice cooled, the cells migrating into the lower chamber liquid were counted using a blood cell counter (Coulter Counter (trade name)). The test drug, dissolved in dimethyl formamide (DMF), was added to both the upper and lower chambers to a final concentration of 10^-5 M. [formula]

[1] = tested on: PAF-induced bronchoconstriction; assay: Effect on platelet activating factor (PAF)-induced bronchoconstriction in guinea pig (Konzett-Roessler method); assay type: in vivo; conditions: P.O., one hour before PAF (1 µg/kg i.v.), male Hartley guinea pigs
Description: Male Hartley guinea pigs (body weights about 500 g) were used. Bronchoconstriction induced by PAF (1 µg/kg i.v.) in guinea pigs was measured according to the method of Konzett-Roessler. The guinea pig immobilized in the dorsal position, tracheotomy was anesthetized with urethane (1.5 g/kg i.v.) and the trachea was connected through a cannula to a respirator. The side branch of the tracheal cannula was connected to a broncho transducer (Model 7020, Ugobasile). The volume of overflow air was recorded on a rectigraph (Recte-Hori-8S, San-ei Sokki) through the brancho transducer. After guinea pig was given gallamine (1 mg/kg i.v.), the guinea pig was treated by PAF (1 µg/kg). The drug suspended in a 5% solution of gum arabic was administered orally in a dose of 3 mg/kg or 1 mg/kg one hour before PAF treatment.

Compound | inhibition at 10 µM (Guinea Pig Eosinophils) [%] | % Inhibition of PAF-induced bronchoconstriction ([1]; 1 mg/kg) [%] | Chemotaxis Inhibition Rate (%) (Guinea Pig Eosinophils) | % Inhibition of PAF-induced bronchoconstriction ([1]; 3 mg/kg) [%]
CC(C)Cc1cc2ncnn2nc1OCC(C)(C)CS(N)(=O)=O [Example 5, 6-(2,2-dimethyl-3-sulfamoyl-1-propoxy)-7-isobutyl[1,2,4]triazolo[1,5-b]pyridazine] | 27 |  |  | 
CCC(CC)(COc1nn2ncnc2cc1C(C)C)CS(N)(=O)=O [Example 4, 6-(2,2-diethyl-3-sulfamoyl-1-propoxy)-7-isopropyl[1,2,4]triazolo[1,5-b]pyridazine] | 23 | 60 |  | 
CC(C)c1cc2ncnn2nc1OCC(C)(C)CS(N)(=O)=O [Example 3, 6-(2,2-dimethyl-3-sulfamoyl-1-propoxy)-7-isopropyl[1,2,4]triazolo[1,5-b]pyridazine] |  | 72 |  | 
CCCCCCc1cc2ncnn2nc1OCC(C)(C)CS(N)(=O)=O [Example 7, 6-(2,2-dimethyl-3-sulfamoyl-1-propoxy)-7-n-hexyl[1,2,4]triazolo[1,5-b]pyridazine] | 24 |  |  | 
CCc1cc2ncnn2nc1OCC(C)(C)CS(N)(=O)=O [Example 1, 6-(2,2-dimethyl-3-sulfamoyl-l-propoxy)-7-ethyl[1,2,4]triazolo[1,5-b]pyridazine] |  | 70 | 35 | 
CCCc1cc2ncnn2nc1OCC(C)(C)CS(N)(=O)=O [Example 2, 6-(2,2-dimethyl-3-sulfamoyl-1-propoxy)-7-n-propyl[1,2,4]triazolo[1,5-b]pyridazine] | 24 | 67 |  | 
CC(C)(COc1nn2ncnc2cc1C(C)(C)C)CS(N)(=O)=O [Example 6, 6-(2,2-dimethyl-3-sulfamoyl-1-propoxy)-7-t-butyl[1,2,4]triazolo[1.5-b]pyridazine] |  | 43 | 38 | 83
Cc1cc2ncnn2nc1OCC(C)(C)CS(N)(=O)=O [Reference compound, 6-(2,2-dimethyl-3-sulfamoyl-1-propoxy)-7-methyl[1,2,4]triazolo[1,5-b]pyridazine, reference compound] | 12 |  |  | 25
